According to patent publication US20040171563A1, “Novel use of tyrosine kinase inhibitor” (priority 2001, published 2004):

Assays:
GTK = target: T1, GTK (Mus musculus, UniProt Q922K9); assay: in vitro kinase assay for GTK activity; type: biochemical; details: for Ki: inhibition of GTK activity in in vitro kinase assays; for inhibition of GTK (qualitative): screening of commercially available tyrosine kinase inhibitors
T1 construct: made in house
Procedure: (§1) Ki using AG957 was approximately 1 μM and that of SU4984 was about 10 μM. These inhibitors were added to Islets of Langerhans in in vitro cultures together with the cytokines IL-1β+IFN-γ, and apoptosis was determined by propidium iodide staining after 24 h. It was shown that AG957 and SU 4984 prevented cytokine-induced apoptosis by 60 and 75%, respectively, which further lends support to the view that GTK-inhibition prevents beta-cell destruction in type 1 diabetes. […] It is expected that also human FRK will be inhibited.
Assay for the assessment of GTK (FRK) kinase activity: The basis for screening for specific GTK kinase inhibitors is in vitro kinase assays, utilizing baculovirus produced GTK which is purified by immunoprecipitation using the GTK antibody. Both these reagents are available for the skilled person within this field. Phosphorylation of a synthetic peptide substrate will be studied (Annerén and Welsh, 2000) testing different concentrations of inhibitors, and IC50 values can then be determined for inhibition of GTK kinase activity. The specificity of drug-induced GTK-inhibition is then assessed by comparing the IC50 values with those of other tyrosine kinases.

Islets of Langerhans = assay: cytokine-induced apoptosis in Islets of Langerhans, propidium iodide staining; type: cell-based; details: in vitro islet cultures with IL-1β+IFN-γ, propidium iodide staining after 24 h
Procedure: as §1

T1 sequence (Q922K9 whole entry): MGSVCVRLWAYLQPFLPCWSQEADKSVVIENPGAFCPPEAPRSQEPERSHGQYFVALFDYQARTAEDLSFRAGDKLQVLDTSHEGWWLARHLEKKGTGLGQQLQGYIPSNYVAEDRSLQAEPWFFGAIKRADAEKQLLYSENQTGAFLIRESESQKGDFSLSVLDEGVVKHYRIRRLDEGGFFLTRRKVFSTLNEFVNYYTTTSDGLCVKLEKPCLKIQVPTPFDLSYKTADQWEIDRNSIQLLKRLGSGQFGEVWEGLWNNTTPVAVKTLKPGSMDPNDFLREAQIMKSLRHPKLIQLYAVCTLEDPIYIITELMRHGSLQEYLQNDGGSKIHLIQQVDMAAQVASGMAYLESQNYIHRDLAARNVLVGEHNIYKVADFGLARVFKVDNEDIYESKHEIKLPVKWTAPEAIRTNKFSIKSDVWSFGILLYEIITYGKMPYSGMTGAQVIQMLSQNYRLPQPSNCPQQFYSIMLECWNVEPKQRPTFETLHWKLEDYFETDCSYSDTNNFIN

Row | Compound | Ki (GTK) [µM] | inhibition of GTK (qualitative) (GTK) | prevention of cytokine-induced apoptosis (Islets of Langerhans) [%]
1 | COC(=O)c1ccc(NCc2cc(O)ccc2O)cc1 [AG957] | ~1 | inhibited GTK activity in in vitro kinase assays with a reasonably high degree of specificity | 60
2 | O=CN1CCN(c2ccc(/C=C3\C(=O)Nc4ccccc43)cc2)CC1 [SU4984] | ~10 | inhibited GTK activity in in vitro kinase assays with a reasonably high degree of specificity | 75
3 | N#C/C(=C\c1ccc(O)c(O)c1)C(=O)O [AG 30] |  | inhibit GTK with a fair degree of specificity | 
